Experimental findings from patent US20220071960A1, “CANCER TREATMENTS” (IMPERIAL COLLEGE INNOVATIONS LIMITED, priority 2018, published 2022) are described below.

Test [1] concerns Shep-ER-N-MYC cell line. Kind of test: Flow cytometry (cell number, caspase3, cell cycle), Shep-ER-N-MYC. The test is classed as cell-based, human. The source says:
(§1) Single-cell suspensions were stained with the following monoclonal antibody: α-Active Caspase3 (BD Biosciences, C92-605, 550821, PE) and c-Myc (Abeam, Y69, ab190560). To analyse DNA content, we stained with FxCycle Violet (ThermoFisher Scientific, F10347). To assess proliferation, we used the Click-iT EdU Alexa Fluor 488 Flow Cytometry Assay Kit (ThermoFisher Scientific, C10420) according to manufacturer's instructions. Zombie NIR (Biolegend, 423105) was used to exclude dead cells. The cells were fixed in a 4% solution of PFA, permeabilised with Cytofix/Cytoperm (BD Bioscience, 554714) and washed in Perm/Wash Buffer (BD Bioscience, 554723). Samples were acquired on a MACSQuant VYB (Miltenyi Biotec) and analysed using the FlowJo software (v10.4, Tree star).
(§2) The experiment was performed in a 24 well plate and in technical duplicate. On day 0, 7,800 cells/well for the Shep and 15,000 cells/well for the SKNAS were seeded in 500 μL media. On day 1, the media was removed and 600 μL of media with 100 nM of Tamoxifen, to induce N-Myc, or ethanol as control. On day 2, the respective concentrations of NMT inhibitor were added. After 6 hours, 24 hours, 48 hours and 72 hours the cells were treated according to the general procedures; however, all the media was collected to not loose apoptotic cells, and Trypsin (ThermoFisher Scientific, 25200056) was used to harvest the cells. […]
(In general: A flow cytometer gives signals particle by particle.)

For test [2], the system named is SKNAS-ER-N-MYC cell line. Put plainly: CellTiter Blue metabolic viability, SKNAS-ER-N-MYC. The conditions noted are these: 96 hours, with or without induction of MYCN. The test is classed as cell-based, human. From the text:
(§3) In the experimental protocols described herein the SKNAS and Shep cell lines were genetically engineered to model differences between high grade neuroblastoma (which are usually marked by MYCN amplifications and with particular poor clinical prognosis) and low grade neuroblastoma. Accordingly, the SKNAS and/or Shep cell lines “with N-MYC induction” described herein will be understood to be cell lines treated with tamoxifen and represent aggressive, high grade type cancer cells. Conversely, the SKNAS and/or Shep cell lines “without N-MYC induction” described herein will be understood to be cell lines not treated with tamoxifen and represent less aggressive forms of cancer cells (Huang et al., Cold Spring Harb. Perspect. Med., 2013, 3(10), 1-22).
(§4) At the respective end points of the experiments 20 μL/well of the CellTiter Blue Assay (Promega, G8081) were added and the cells were incubated at 37° C. for 3 hours. The fluorescence was measured at 570 nm using an EnVision™ plate reader. As a positive control, the highest DMSO concentration was added to the cells (usually 0.4% DMSO); as a negative control, the cells were treated with 10 μg/mL Puromycin and 1 uM Staurosporine (Merck, P7255 and S4400, respectively).
The experiment was performed in a 48 well plate and in technical triplicate. On day 0, 5,500 cells/well were seeded in 200 μL media. […]
For orientation: Resazurin is reduced to fluorescent resorufin, in cell work by metabolically active cells.

In test [3] the test system is SKNAS-ER-N-MYC cell line. Kind of test: Flow cytometry (cell number, caspase3, cell cycle), SKNAS-ER-N-MYC. Conditions: MYCN activated cells; FIG. 19. The test is classed as cell-based, human.
Excerpt: as §1, §2

For test [4], the system named is Shep-ER-N-MYC cell line. Put plainly: CellTiter Blue metabolic viability, Shep-ER-N-MYC. The format is cell-based, human. Conditions: 72 hours, with or without induction of MYCN.
Excerpt: as §3, §4
The experiment was performed in a 96 well plate and in technical quadruplicate. On day 0, 1,000 cells/well were seeded in 50 μL media. […]

A further test deals with P-493-6 cell line. Kind of test: CellTiter Blue metabolic viability, P-493-6. The format is cell-based. From the text:
The P-493-6 cell line is a non-transformed B cell line that can be genetically engineered to have either “low” levels of c-Myc, “medium” levels of c-Myc or “high” levels of c-Myc. The terms “low”, “medium” and “high” are descriptors commonly used in the art and will be readily understood to mean: • i) “low” levels of c-Myc-a level of MYC expression which represents non-proliferating normal cells (i.e. a level of MYC expression not sufficient to cause the cycling of the cells); • ii) “medium” levels of c-Myc-a level of MYC expression which represents normal proliferating cells; and • iii) ““high” levels of c-Myc-a level of MYC expression which represents enforced/deregulated expression of c-Myc, typically observed in cancerous cells. At the respective end points of the experiments 20 μL/well of the CellTiter Blue Assay (Promega, G8081) were added and the cells were incubated at 37° C. for 3 hours. The fluorescence was measured at 570 nm using an EnVisionTM plate reader. As a positive control, the highest DMSO concentration was added to the cells (usually 0.4% DMSO); as a negative control, the cells were treated with 10 μg/mL Puromycin and 1 uM Staurosporine (Merck, […] and […], respectively). The experiment was performed in a 96 well plate and in technical quadruplicate. […]

The target of another test is T1, human NMT1 (HsNMT1) (Homo sapiens, UniProt P30419).
T1 sequence (P30419 1-496): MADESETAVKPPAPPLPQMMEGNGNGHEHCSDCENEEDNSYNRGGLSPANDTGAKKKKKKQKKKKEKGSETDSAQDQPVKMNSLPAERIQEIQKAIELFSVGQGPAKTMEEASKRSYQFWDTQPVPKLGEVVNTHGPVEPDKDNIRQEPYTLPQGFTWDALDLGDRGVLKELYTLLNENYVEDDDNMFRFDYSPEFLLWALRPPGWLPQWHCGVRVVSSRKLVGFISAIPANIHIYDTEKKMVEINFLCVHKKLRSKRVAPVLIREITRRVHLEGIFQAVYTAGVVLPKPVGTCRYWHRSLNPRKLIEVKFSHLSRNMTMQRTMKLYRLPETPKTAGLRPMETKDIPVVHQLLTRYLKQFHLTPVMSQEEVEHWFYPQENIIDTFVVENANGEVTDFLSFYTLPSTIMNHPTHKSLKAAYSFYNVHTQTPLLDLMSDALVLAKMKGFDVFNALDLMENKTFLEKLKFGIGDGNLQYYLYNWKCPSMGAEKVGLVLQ
Put plainly: HsNMT1 fluorescence-based assay (CoA detection by CPM). The test is classed as biochemical. On the procedure:
The IC50 values for human NMT1 (HsNMT1) of Compounds 5 and 7 were measured using a sensitive fluorescence-based assay based on detection of CoA by 7-diethylamino-3-(4-maleimido-phenyl)-4-methylcoumarin, as described in Goncalves, V., et al., Analytical Biochemistry, 2012, 421, 342-344 and Goncalves, V., et al., J. Med. Chem, 2012, 55, 3578.

The test system of a further test is MRC5 cells. Kind of test: Metabolic activity assay (MTS assay). The test is classed as cell-based. Conditions: Homo sapiens, MRC5 fibroblast cells, 72 h. On the procedure:
Compounds 5 and 7 were also tested for activity in an in vitro metabolic activity assay using the human cell line MRC5. Compounds having activity in inhibiting metabolic activity in the assay are expected to be useful as agents for preventing and/or treating cancer, by virtue of being inhibitors of human NMT1 and/or NMT2.
MRC5 cells (cell type: fibroblast cells) were grown in DMEM media (supplemented with 10% FBS) and were seeded in a 96-well plate, 24 h prior to treatment. Cell suspensions were prepared by adjusting the cell density to the appropriate concentration (as stated in the Table 1 below) and 50 μL of the cell suspension was transferred to wells B-G in columns 2-11 of a 96-well plate. […]
After 72 h, 20 μL MTS reagent (Promega, prepared according to the supplier protocol) was added to each well of the 96-well plate. The plate was incubated at 37° C. for 2 h and the absorbance per well was measured at 490 nm with an EnVision plate reader. The average absorbance value of the negative control (Puromycin-treated cells) was subtracted from each value and the metabolic activity was calculated as a percentage relative to the positive control (DMSO-treated cells). EC50 values were calculated using GraphPad.

With `Cc1nn(C)c(C)c1CCOc1c(-c2ccc3c(c2)c(CN(C)C)nn3C)ccc(F)c1F` [Compound 2, 1-(5-(3,4-difluoro-2-(2-(1,3,5-trimethyl-1H-pyrazol-4-yl)ethoxy)phenyl)-1-methyl-1H-indazol-3-yl)-N,N-dimethylmethanamine], the cell cycling result with Shep-ER-N-MYC cell line [1] (MYCN activated cells, FIG. 17) is “do not reduce their cycling”; with Shep-ER-N-MYC cell line [1] (cell line without activated MYCN), “stops cycling at 48 hours”; in the test with SKNAS-ER-N-MYC cell line [3], “do not reduce their cycling”. The “cell death with high versus low levels of MYCN” value with SKNAS-ER-N-MYC cell line [2] and in the test on Shep-ER-N-MYC cell line [4] was “increased cell death more rapidly at lower concentrations” in each case. The “effect on cell viability” value in the test on P-493-6 cell line (10 nM, 72 hours, Myc high cell lines) was “measurable effects on cell viability”. Further, in the test on P-493-6 cell line (48 hours and 72 hours, c-MYC high, medium, low), the “cell death depending on c-MYC level” value is recorded as “clear MYC-dependent increase in cell death”.
By IC50 is commonly meant the concentration needed to halve the response being measured. Lower therefore signals greater potency in that assay. As a reminder, the EC50 is the concentration giving half of the maximal effect. High values mean a less potent agent, low ones a more potent agent. The compound `Cc1c(CCOc2cc(Cl)ccc2-c2ccc3ncc(CCN)n3c2)c(C(=O)N(C)C)nn1C` [Compound 5, 4-(2-{2-[3-(2-aminoethyl)imidazo[1,2-a]pyridin-6-yl]-5-chlorophenoxy}ethyl)-N,N,1,5-tetramethyl-1H-pyrazole-3-carboxamide] had a concentration for half-maximal inhibition (IC50) against human NMT1 (HsNMT1) of 1.5 nM. The midpoint of the response in the test on MRC5 cells, the EC50, lay at 13 nM.
For `CNC(=O)c1nn(C)c(C)c1CCOc1cc(Cl)ccc1-c1ccc2ncc(CCN)n2c1` [Compound 7, 4-(2-{2-[3-(2-aminoethyl)imidazo[1,2-a]pyridin-6-yl]-5-chlorophenoxy}ethyl)-N,1,5-trimethyl-1H-pyrazole-3-carboxamide], in that order: 0.4 nM and 37 nM.
